Results on twelve molecules are retold here after patent US20250387504A1, “ANTIBODY-DRUG CONJUGATES OF ANTINEOPLASTIC COMPOUNDS AND METHODS OF USE THEREOF” (Novartis AG, priority 2022, published 2025).

Data set [1] relates to T-ALL (T-cell Acute Lymphoblastic Leukemia) and different types of solid tumors. Conditions: cited from earlier work.
For data set [2], the system named is hematological malignancies and solid tumors. The following applies: several hematological malignancies and solid tumors; cited from earlier work.
The next data set relates to lymphoid malignancies. The following applies: cited from earlier work.
For data set [3], the system named is animal models of arthritis and lupus. The following applies: mice; cited from earlier work.
Data set [4] relates to allogeneic T- and B-cell responses. Conditions: after skin transplantation; cited from earlier work.
In a further data set the test system is allogeneic T-cell. Conditions: in vitro; cited from earlier work.
The subject of another data set is lymphocyte proliferation. Conditions: in vitro; cited from earlier work.
The subject of another data set is KE-97. Put plainly: CellTiter-Glo proliferation assay, CD48 MCL-1 and BCL-2 ADCs (Example 4). The following applies: KE-97, 120 h, read-out: Ke97 IC50 (nM).
Another data set concerns AMO-1. Described as above. The following applies: Homo sapiens, AMO1, 120 h, read-out: AMO-1 IC50 (nM).
For the next data set, the system named is KMS-21-BM. The data set is described as above. Conditions: 120 h, read-out: KMS-21-BM IC50 (nM).
A further data set deals with WSU-DLCL2. The description is as above. The following applies: Homo sapiens, WSUDLCL2, 120 h, read-out: WSU-DLCL2 IC50 (nM).
The next data set deals with RL. The data set is described as above. Conditions: Homo sapiens, 120 h, read-out: RL IC50 (nM).
Another data set concerns MOLP-8. Described as above. Conditions: Homo sapiens, MOLP-8, 120 h, read-out: MOLP-8 IC50 (nM).
The subject of a further data set is KHM-1B. The data set is described as above. The following applies: 120 h, read-out: KHM-1B IC50 (nM).
Data set [5] concerns KMS-27. The data set is described as above. Conditions: KMS-27, 120 h, read-out: KMS-27 IC50 (nM).
Experimental: (§3) The ability of the MCL-1 and BCL-2 antibody drug conjugates to inhibit cell proliferation and survival was assessed using the Promega CellTiter-Glo® proliferation assay.
(§4) Cell lines were cultured in media that is optimal for their growth at 5% CO2, 37° C. in a tissue culture incubator. Prior to seeding for the proliferation assay, the cells were split at least 2 days before the assay to ensure optimal growth density. On the day of seeding, cell viability and cell density were determined using a cell counter (Vi-Cell XR Cell Viability Analyzer, Beckman Coulter). […] Cells were seeded at a density of 1,000 cells per well in 45 μL of standard growth media. Plates were incubated at 5% CO2, 37° C. overnight in a tissue culture incubator. The next day, free MCL-1 and BCL-2 payloads, targeting MCL-1 and BCL-2 ADCs, and non-targeting isotype ADCs free MCL-1 and BCL-2 payloads, were prepared at 10× in standard growth media. […] Each drug concentration was tested in quadruplets. Plates were incubated at 5% CO2, 37° C. for 5 days in a tissue culture incubator, after which cell viability was assessed through the addition of 25 L μof CellTiter Glo® (Promega, cat #G7573), a reagent which lyses cells and measures total adenosine triphosphate (ATP) content. Plates were incubated at room temperature for 10 minutes to stabilize luminescent signals prior to reading using a luminescence reader (EnVision Multilabel Plate Reader, PerkinElmer). To evaluate the effect of the drug treatments, luminescent counts from wells containing untreated cells (100% viability) were used to normalize treated samples. […] IC50 and Amax values were extrapolated from the resultant curves.
The subject of another data set is NCI-H929. Described as above. Conditions: Homo sapiens, NCI-H929, 120 h, read-out: NCI-H929 IC50 (nM).
The subject of data set [6] is KMS-27. Put plainly: CellTiter-Glo proliferation assay, CD48 MCL-1/BCL-xL and BCL-xL ADCs (Example 6). It is filed as cell-based. The following applies: Table 3 CD48 ADC, 5 days; for IC50: KMS-27, 120 h, 0.01-600 nM. The method, then: (§1) The next day, free MCL-1 payload (P1), free BCL-xL payload (P5 and P6) and targeting MCL-1 and BCL-xL ADCs and targeting BCL-xL ADCs were prepared at 10X in standard growth media. […] Each drug concentration was tested in quadruplets.

Another data set has as its system EOL-1. The experiment in a line: CellTiter-Glo proliferation assay, CD74 MCL-1/BCL-xL and BCL-xL ADCs (Example 6). Type of data set: cell-based. The following applies: Table 4 CD74 ADC, 5 days; for IC50: Homo sapiens, EOL1, 120 h, 0.01-600 nM. The method, then:
(§2) The CD74 MCL-li and BCL-xLi antibody drug conjugates and the CD74 BCL-xL antibody drug conjugates were tested against two endogenous cancer cell lines. • Kasumi-6: ATCC No. CRL-2775 cultured in RPMI 1640 medium with 2 mM L-glutamine adjusted to contain 1.5 g/L sodium bicarbonate, 4.5 g/L glucose, 10 mMv HEPES, and 1.0 mM sodium pyruvate supplemented with 2 ng/ml human recombinant granulocyte macrophage colony stimulating factor (GM-CSF) and 20% FBS • EOL-1: DSMZ No. ACC-386 cultured in RPMI-1640+10% FBS
as §1

Another data set concerns Kasumi-6. The description is as above. It is filed as cell-based. The following applies: Table 4 CD74 ADC, 5 days; for IC50: 120 h, 0.01-600 nM. The method, then: as §2, §1
A further data set concerns the target TROP2 (human) (UniProt P09758). The experiment in a line: cell-based or functional assay.
For a further data set, the target named is HER2 (UniProt P04626). The experiment in a line: cell-based or functional assay.

Sequence of TROP2 (human) (P09758 27-323): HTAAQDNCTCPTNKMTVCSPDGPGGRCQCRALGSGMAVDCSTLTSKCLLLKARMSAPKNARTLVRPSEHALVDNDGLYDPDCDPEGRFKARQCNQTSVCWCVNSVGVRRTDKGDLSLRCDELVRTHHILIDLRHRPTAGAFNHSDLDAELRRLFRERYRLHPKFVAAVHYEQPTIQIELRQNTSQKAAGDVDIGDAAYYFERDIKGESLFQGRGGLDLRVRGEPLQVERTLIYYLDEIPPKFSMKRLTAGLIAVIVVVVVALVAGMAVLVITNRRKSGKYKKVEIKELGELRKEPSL
Experimental for AMO-1: as §3, §4
Experimental for KE-97: as §3, §4
Experimental for KHM-1B: as §3, §4
Experimental for KMS-21-BM: as §3, §4
Experimental for MOLP-8: as §3, §4
Experimental for NCI-H929: as §3, §4
Experimental for RL: as §3, §4
Experimental for WSU-DLCL2: as §3, §4

Consider `CN(C)CC#Cc1ccc(OCCCc2sc(N3CCc4cccc(C(=O)Nc5nc6ccccc6s5)c4C3)nc2C(=O)O)c(F)c1` [A-1155463], for which the “in vivo activity in pre-clinical models” value in data set [1] is recorded as “in vivo activity”.
For the molecule `Cc1c(-c2ccc(N3CCc4cccc(C(=O)Nc5nc6ccccc6s5)c4C3)nc2C(=O)O)cnn1CC12CC3CC(CC(C3)C1)C2` [A-1331852], the “in vivo activity in pre-clinical models” value in data set [1] is “in vivo activity”.
Turning to `CC1(C)CCC(c2ccc(Cl)cc2)=C(CN2CCN(c3ccc(C(=O)NS(=O)(=O)c4ccc(N[C@H](CCN5CCOCC5)CSc5ccccc5)c(S(=O)(=O)C(F)(F)F)c4)cc3)CC2)C1` [ABT-263, navitoclax], the “activity in pre-clinical models” value in data set [2] is on record as “shown activity”. Besides, the “antitumor activity in clinical studies” value with lymphoid malignancies is “objective antitumor activity”.
Take `CN(C)CC[C@H](CSc1ccccc1)Nc1ccc(S(=O)(=O)NC(=O)c2ccc(N3CCN(Cc4ccccc4-c4ccc(Cl)cc4)CC3)cc2)cc1[N+](=O)[O-]` [ABT-737]: in [3], the disease severity entry is on record as “significant decrease in disease severity”. Also, the “allogeneic T- and B-cell responses” value in data set [4] is given as “inhibited”. In the data set with allogeneic T-cell, the “allogeneic T-cell activation, proliferation, and cytotoxicity” value is recorded as “prevented”. Besides, in the data set with lymphocyte proliferation, the “inhibition of lymphocyte proliferation” value is given as “potent inhibition”.
As to `Cc1c(N(C(=O)c2cc(-c3cc(Cl)ccc3C(=O)N3Cc4ccccc4C[C@H]3CCCN(C)C)n(C)c2C)c2ccc(O)cc2)cc(C#N)n1C` [P2, 5-[5-chloro-2-[(3R)-3-[3-(dimethylamino)propyl]-3,4-dihydro-1H-isoquinoline-2-carbonyl]phenyl]-N-(5-cyano-1,2-dimethyl-pyrrol-3-yl)-N-(4-hydroxyphenyl)-1,2-dimethyl-pyrrole-3-carboxamide], the 50% inhibitory concentration (IC50) is above 250 nM in the data set on KE-97; above 250 nM in the data set on AMO-1; above 100 nM in the data set with KMS-21-BM; 3.77 nM in the data set with WSU-DLCL2; 6.26 nM with RL; above 250 nM with MOLP-8. In addition, the half-inhibitory concentration (IC50) with KHM-1B is above 10 nM; with KMS-27 [5], 0.316 nM; in the data set with NCI-H929 it was above 250 nM.
For `Cc1c(C(=O)N(c2ccc(O)cc2)c2cnn(C(F)F)c2)cc(-c2cc3c(cc2C(=O)N2Cc4ccccc4C[C@H]2C)CN(C(=O)Cc2ccc(OCCN4CCOCC4)cc2)CC3)n1C` [P3], the IC50 with KE-97 was above 250 nM; in the data set on AMO-1, above 250 nM; in the data set with KMS-21-BM, above 100 nM; with WSU-DLCL2 it was 5.41 nM; with RL, 11.8 nM; in the data set with MOLP-8, above 250 nM. For the same molecule, the half-maximal inhibitory concentration (IC50) was above 10 nM in the data set on KHM-1B, 3.91 nM with KMS-27 [5] and above 250 nM in the data set on NCI-H929.
Turning to `Cc1c(N(C(=O)c2cc(-c3cc4c(cc3C(=O)N3Cc5ccccc5C[C@H]3C)CN(C(=O)Cc3ccc(OCCN5CCOCC5)cc3)CC4)n(C)c2C)c2ccc(O)cc2)cc(C#N)n1C` [P4, N-(5-cyano-1,2-dimethyl-1H-pyrrol-3-yl)-N-(4-hydroxyphenyl)-1,2-dimethyl-5-{7-[(3R)-3-methyl-1,2,3,4-tetrahydroisoquinoline-2-carbonyl]-2-(2-{4-[2-(morpholin-4-yl)ethoxy]phenyl}acetyl)-1,2,3,4-tetrahydroisoquinolin-6-yl}-1H-pyrrole-3-carboxamide], the IC50 in the data set on KE-97 was above 250 nM; in the data set with AMO-1 it was above 250 nM; with KMS-21-BM it was above 100 nM; with WSU-DLCL2, 4.17 nM; with RL, 1.26 nM; in the data set on MOLP-8, above 250 nM. Also, the half-inhibitory concentration (IC50) in the data set with KHM-1B was above 10 nM; in the data set with KMS-27 [5], 0.999 nM; with NCI-H929 it was above 250 nM.
In the data set on KMS-27 [6], `Cc1c(Nc2nc3ccccc3s2)nnc2c1CCCN2c1ccc(-c2cnn(CC34CC5(C)CC(C)(C3)CC(OCCNCCCO)(C5)C4)c2C)c(C(=O)O)n1` [P5, 6-[3-(1,3-benzothiazol-2-ylamino)-4-methyl-6,7-dihydro-5H-pyrido[2,3-c]pyridazin-8-yl]-3-[1-[[3-[2-(3-hydroxypropylamino)ethoxy]-5,7-dimethyl-1-adamantyl]methyl]-5-methyl-pyrazol-4-yl]pyridine-2-carboxylic acid] registered an IC50 below 5 nM. In the data set with EOL-1, the IC50 was 0.488 nM and the “EOL-1 Amax (Span)” value is 94.9. In the data set with Kasumi-6, the IC50 came to 11.9 nM and the “Kasumi-6 Amax (Span)” value is on record as 84.5.
`Cc1c(Nc2nc3ccccc3s2)nnc2c1CCCN2c1nc(C(=O)O)c(CCCOc2ccc(C#CCN(C)C)cc2F)s1` [P6, 2-[3-(1,3-Benzothiazol-2-ylamino)-4-methyl-6,7-dihydro-SH-pyrido[2,3-c]pyridazin-8-yl]-5-[3-[4-[3-(dimethylamino)prop-1-ynyl]-2-fluoro-phenoxy]propyl]thiazole-4-carboxylic acid]: the IC50 is 7.89 nM in the data set with KMS-27 [6], below 10 nM with EOL-1 and below 10 nM in the data set with Kasumi-6. The “KMS-27 Amax (Span)” value in the data set on KMS-27 [6] came out at 93.7.

B1: Datopotamab-P5-L12-P7 (antibody, INN chains, looked up, V domains shown)
VH: QVQLVQSGAEVKKPGASVKVSCKASGYTFTTAGMQWVRQAPGQGLEWMGWINTHSGVPKYAEDFKGRVTISADTSTSTAYLQLSSLKSEDTAVYYCARSGFGSSYWYFDVWGQGTLVTVSS
VL: DIQMTQSPSSLSASVGDRVTITCKASQDVSTAVAWYQQKPGKAPKLLIYSASYRYTGVPSRFSGSGSGTDFTLTISSLQPEDFAVYYCQQHYITPLTFGQGTKLEIK
modifications: BCLxLi/TOPOi dual drug-linker P5-L12-P7
With B1, in the data set with TROP2 (human), the IC50 (nM), NCI-H441 worked out at 0.692 nM.

B2: Datopotamab-mono-L3-P8 (antibody, INN chains, looked up, V domains shown)
VH: QVQLVQSGAEVKKPGASVKVSCKASGYTFTTAGMQWVRQAPGQGLEWMGWINTHSGVPKYAEDFKGRVTISADTSTSTAYLQLSSLKSEDTAVYYCARSGFGSSYWYFDVWGQGTLVTVSS
VL: DIQMTQSPSSLSASVGDRVTITCKASQDVSTAVAWYQQKPGKAPKLLIYSASYRYTGVPSRFSGSGSGTDFTLTISSLQPEDFAVYYCQQHYITPLTFGQGTKLEIK
modifications: TOPOi mono-loaded drug-linker L3-P8
Take B2: in the data set with TROP2 (human), the IC50 (nM), NCI-H441 is below 5 nM.

B3: Disitamab-P5-L12-P7 (antibody, INN chains, looked up, V domains shown)
VH: EVQLVQSGAEVKKPGATVKISCKVSGYTFTDYYIHWVQQAPGKGLEWMGRVNPDHGDSYYNQKFKDKATITADKSTDTAYMELSSLRSEDTAVYFCARNYLFDHWGQGTLVTVSS
VL: DIQMTQSPSSVSASVGDRVTITCKASQDVGTAVAWYQQKPGKAPKLLIYWASIRHTGVPSRFSGSGSGTDFTLTISSLQPEDFATYYCHQFATYTFGGGTKVEIK
modifications: BCLxLi/TOPOi dual payload P5-L12-P7
The molecule B3 gave an IC50 (nM), inhibition of cell proliferation and survival (CellTiter-Glo), UACC-812 cells in the data set with HER2 of 0.191 nM.
